The target in one assay is T1, N-acyl amino acid racemase from A. TS-1-60 (Amycolatopsis sp, UniProt Q44244).
T1 sequence (Q44244 1-368): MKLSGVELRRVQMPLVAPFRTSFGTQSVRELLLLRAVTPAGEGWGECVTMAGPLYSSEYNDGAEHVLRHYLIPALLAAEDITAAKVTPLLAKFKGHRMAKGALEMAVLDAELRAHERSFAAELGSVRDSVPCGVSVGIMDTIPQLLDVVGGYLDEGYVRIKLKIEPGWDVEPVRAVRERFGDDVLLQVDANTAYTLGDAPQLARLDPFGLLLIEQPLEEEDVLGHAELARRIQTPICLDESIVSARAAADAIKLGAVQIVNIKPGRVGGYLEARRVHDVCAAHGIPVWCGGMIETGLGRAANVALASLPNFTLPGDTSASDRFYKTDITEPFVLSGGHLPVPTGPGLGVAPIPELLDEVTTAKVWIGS
Description: Racemase activity of the N-acyl amino acid racemase from A. TS-1-60. Format: biochemical, Amycolatopis sp. TS-1-60. The following applies: N-carbamoyl-D-Met as substrate. An excerpt:
The N-acyl amino acid racemase from A. TS-1-60 with N-carbamoyl-D-Met as substrate has an activity of 100 mU/mg. This specific activity is thus 35% lower than that of the racemase from A. orientalis subsp. lurida.
For the compound `CSCC[C@@H](NC(N)=O)C(=O)O` [N-Carbamoyl-D-Met], the “activity (specific activity) of the racemase from A. TS-1-60” value is given as 100 mU/mg.

The same assay, now with this note: TS-1-60 racemase versus A. orientalis subsp. lurida racemase, N-carbamoyl-D-Met as substrate.
With `CSCC[C@@H](NC(N)=O)C(=O)O` [N-Carbamoyl-D-Met], the “specific activity lower than that of the racemase from A. orientalis subsp. lurida” value is given as 35%.

The subject of a further assay is N-acetyl amino acid racemase from Amycolatopsis orientalis subsp. lurida. The assay can be described thus: Detection of racemase activity of recombinant AAR (polarimetric racemization assay). Format: biochemical. The following applies: substrate 25 mM, Tris/HCl 50 mM pH 8.0, cobalt chloride 6 mM, approx 150 μg purified protein, 30° C., 3 to 12 hours, polarimeter λ=365 nm. How it is done: The substrate spectrum of the N-acetyl amino acid racemase from Amycolatopsis orientalis subsp. lurida was tested using the enzyme assay described below. The assay was composed of the following: [table] Enantiomerically pure amino acid derivatives were used in the test and the formation of the corresponding racemate was monitored in the polarimeter (Perkin-Elmer 241). Incubation took place at 30° C. (heated cell) for 3 to 12 hours. The measurements were taken at a wave length of λ=365 nm.
For the compound `CC(C)[C@H](NC(N)=O)C(=O)O` [N-Carbamoyl-L-Val], the “Specific activity of the AAR” value was determined as 20 mU/mg.

Consider `CSCC[C@H](NC(N)=O)C(=O)O` [N-Carbamoyl-L-Met], for which the “Specific activity of the AAR” value was 118 mU/mg.

As to `CSCC[C@@H](NC(N)=O)C(=O)O` [N-Carbamoyl-D-Met], the “Specific activity of the AAR” value is 155 mU/mg.

With `CC(C)C[C@H](NC(N)=O)C(=O)O` [N-Carbamoyl-L-Leu], the “Specific activity of the AAR” value was found to be 20 mU/mg.

On to N-Carbamoyl-L-Abs, for which the “Specific activity of the AAR” value is 15 mU/mg.

For the compound `NC(=O)N[C@H](Cc1ccccc1)C(=O)O` [N-Carbamoyl-D-Phe], the “Specific activity of the AAR” value is on record as 20 mU/mg.

Take `NC(=O)N[C@@H](Cc1ccc(O)cc1)C(=O)O` [N-Carbamoyl-L-Tyr]: the “Specific activity of the AAR” value was 62 mU/mg.

The record behind these values is US6767725B2, “Acetyl amino acid racemase from amycolatopsis orientalis for racemizing carbamoyl amino acids” (Degussa AG, priority 2000, dated 2004).
